Results as given in patent US20120244553A1, “BIOMARKER OF ALLERGIC DISEASE AND USE OF THE SAME” (UNIVERSITY OF TOYAMA, priority 2007, published 2012).
Entries after “also recorded” stand apart in the source; their conditions may differ.

Tests used:
[1] = system: granzyme A-induced scratching behavior; assay: Suppression of scratching behavior induced by intradermal injection of granzyme A; type: in vivo, mouse; conditions: naltrexone injected 15 minutes before granzyme A
Description: (§1) On the day before the experiment, the hair on the rostral back of each mouse was removed. On the day of the experiment, the mouse was left in an observation cage for 1 hour to familiarize the mouse with the environment. After the familiarization, granzyme A (0.1 to 100 μg/site) or ESGM (10 μg/50 μL) was intradermally injected to the rostral back of the mouse. The mouse was returned to the observation cage (13×9×30 cm) immediately after the administration, and the behavior with no observer present was filmed with an 8-mm video camera. A protease inhibitor in an amount of 0.05 mL per 10 g of body weight of the mouse was injected into the tail vein 30 seconds before the administration of ESGM. Naltrexone in an amount of 0.1 mL per 10 g of body weight of the mouse was intradermally injected 15 minutes before the administration of granzyme A. The behavior after the injection was observed by playing back the video. Scratching behavior was determined by counting the number of times there was scratching of the injection portion and nearly areas with the hind paws. A mouse usually scratches several times for about 1 second, and a series of this behavior was determined as one instance of scratching behavior.

mice = conditions: animals such as mice; cited from earlier work
[2] = system: mosquito salivary gland extract-induced scratching behavior; conditions: mouse; cited from earlier work
primary afferent = conditions: sensitized mouse; cited from earlier work
normal mice = assay: Behavior experiment: scratching behavior after intradermal injection of granzyme A; type: in vivo, mouse
Description: as §1

Molecule	Effect on scratching behavior increased by repetitive injections of mosquito salivary gland extract [2]	Effect on enhanced activity of primary afferent after mosquito salivary gland extract injection (primary afferent)	further results
O=C1CC[C@@]2(O)[C@H]3Cc4ccc(O)c5c4[C@@]2(CCN3CC2CC2)[C@H]1O5 [naltrexone]			Effect on scratching behavior induced by intradermal injection of granzyme A [1]: suppressed
NCCc1c[nH]cn1 [histamine]			Scratching behavior caused by histamine (mice): does not cause scratching behavior
CC(C)(C)c1ccc(C(O)CCCN2CCC(C(O)(c3ccccc3)c3ccccc3)CC2)cc1 (centres unmarked) [terfenadine]	is not suppressed	not suppressed	
CN1CCCC(n2nc(Cc3ccc(Cl)cc3)c3ccccc3c2=O)CC1 (centres unmarked) [azelastine]	is suppressed	suppressed	
granzyme A: serine protease expressed in CD4+ T cells; intradermally injected into mice to induce scratching (protein, listed as Homo sapiens) MRNSYRFLASSLSVVVSLLLIPEDVCEKIIGGNEVTPHSRPYMVLLSLDRKTICAGALIAKDWVLTAAHCNLNKRSQVILGAHSITREEPTKQIMLVKKEFPYPCYDPATREGDLKLLQLTEKAKINKYVTILHLPKKGDDVKPGTMCQVAGWGRTHNSASWSDTLREVNITIIDRKVCNDRNHYNFNPVIGMNMVCAGSLRGGRDSCNGDSGSPLLCEGVFRGVTSFGLENKCGDPRGPGVYILLSKKHLNWIIMTIKGAV			Dose giving peak scratching behavior (normal mice; intradermal injection): 10 μg/site; Scratching behavior induced by intradermal injection (normal mice; intradermal injection to rostral back, 0.1 to 100 μg/site): an itching reaction occurred; also recorded: induced; also recorded: induction of scratching behavior
